From the supplement of paper PMC10307832

Columns and labels:
Experiment in all cases: relative viability (nuclei count vs DMSO), 5 days (fraction); higher = more cells survive
[1] = tested on: LCLC-103H
In short: (§1)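 Lung cancer cell lines, seeded in 1536-well plates, were treated the following day by pin tool with a single drug or with five library-drug doses (not always all listed) in √10 steps on top of a fixed anchor-drug dose. Cells were fixed and nuclei stained in one step after 5 days, and nuclei were counted. Relative viability is the nuclei count for treated wells divided by that for vehicle wells, reported as medians of duplicate plates.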

[2] = tested on: LXF-289
In short: as §1

[3] = tested on: LCLC-97TM1
In short: as §1

[4] = tested on: NCI-H1650
In short: as §1

[5] = tested on: NCI-H1437
In short: as §1

[6] = tested on: NCI-H1792
In short: as §1

[7] = tested on: NCI-H2405
In short: as §1

[8] = tested on: HCC-827
In short: as §1

[9] = tested on: SK-LU-1
In short: as §1

[10] = tested on: NCI-H2087
In short: as §1

[11] = tested on: NCI-H322M
In short: as §1

[12] = tested on: NCI-H1944
In short: as §1

[13] = tested on: NCI-H3122
In short: as §1

[14] = tested on: NCI-H647
In short: as §1

[15] = tested on: RERF-LC-KJ
In short: as §1

[16] = tested on: 201T
In short: as §1

[17] = tested on: BEN
In short: as §1

[18] = tested on: NCI-H2228
In short: as §1

[19] = tested on: CAL-12T
In short: as §1

[20] = tested on: NCI-H727
In short: as §1

SMILES: CC(=O)O[C@@]12CO[C@@H]1C[C@H](O)[C@@]1(C)C(=O)[C@H](O)C3=C(C)[C@@H](OC(=O)[C@H](O)[C@@H](NC(=O)OC(C)(C)C)c4ccccc4)C[C@@](O)([C@@H](OC(=O)c4ccccc4)[C@H]21)C3(C)C [Docetaxel] + C[C@@H](Oc1cc(-c2cnn(C3CCNCC3)c2)cnc1N)c1c(Cl)ccc(F)c1Cl [Crizotinib] (partner 1 µM)
- relative viability ([1]; first compound 0.0002 µM): 1.19
- relative viability ([1]; first compound 0.000632 µM): 1.04
- relative viability ([1]; first compound 0.002 µM): 0.776
- relative viability ([1]; first compound 0.006325 µM): 0.674
- relative viability ([1]; first compound 0.02 µM): 0.756
- relative viability ([2]; first compound 0.0002 µM): 0.819
- relative viability ([2]; first compound 0.000632 µM): 0.483
- relative viability ([2]; first compound 0.002 µM): 0.452
- relative viability ([2]; first compound 0.006325 µM): 0.119
- relative viability ([2]; first compound 0.02 µM): 0.139
- relative viability ([3]; first compound 0.000632 µM): 0.178
- relative viability ([3]; first compound 0.002 µM): 0.115
- relative viability ([3]; first compound 0.006325 µM): 0.139
- relative viability ([3]; first compound 0.02 µM): 0.12
- relative viability ([4]; first compound 0.0002 µM): 0.906
- relative viability ([4]; first compound 0.000632 µM): 0.398
- relative viability ([4]; first compound 0.002 µM): 0.206
- relative viability ([4]; first compound 0.006325 µM): 0.185
- relative viability ([4]; first compound 0.02 µM): 0.141
- relative viability ([5]; first compound 0.0002 µM): 0.901
- relative viability ([5]; first compound 0.000632 µM): 0.878
- relative viability ([5]; first compound 0.002 µM): 0.197
- relative viability ([5]; first compound 0.006325 µM): 0.113
- relative viability ([5]; first compound 0.02 µM): 0.11
- relative viability ([6]; first compound 0.0002 µM): 0.929
- relative viability ([6]; first compound 0.000632 µM): 0.905
- relative viability ([6]; first compound 0.002 µM): 0.646
- relative viability ([6]; first compound 0.02 µM): 0.115
- relative viability ([7]; first compound 0.0002 µM): 0.87
- relative viability ([7]; first compound 0.000632 µM): 0.623
- relative viability ([7]; first compound 0.002 µM): 0.447
- relative viability ([7]; first compound 0.006325 µM): 0.396
- relative viability ([7]; first compound 0.02 µM): 0.292
- relative viability ([8]; first compound 0.0002 µM): 0.943
- relative viability ([8]; first compound 0.000632 µM): 0.91
- relative viability ([8]; first compound 0.002 µM): 0.68
- relative viability ([8]; first compound 0.006325 µM): 0.416
- relative viability ([8]; first compound 0.02 µM): 0.342
- relative viability ([9]; first compound 0.0002 µM): 0.692
- relative viability ([9]; first compound 0.000632 µM): 0.567
- relative viability ([9]; first compound 0.002 µM): 0.379
- relative viability ([9]; first compound 0.006325 µM): 0.249
- relative viability ([9]; first compound 0.02 µM): 0.272
- relative viability ([10]; first compound 0.0002 µM): 0.854
- relative viability ([10]; first compound 0.000632 µM): 0.684
- relative viability ([10]; first compound 0.002 µM): 0.334
- relative viability ([10]; first compound 0.006325 µM): 0.182
- relative viability ([10]; first compound 0.02 µM): 0.156
- relative viability ([11]; first compound 0.0002 µM): 0.817
- relative viability ([11]; first compound 0.000632 µM): 0.91
- relative viability ([11]; first compound 0.002 µM): 0.71
- relative viability ([11]; first compound 0.006325 µM): 0.233
- relative viability ([11]; first compound 0.02 µM): 0.405
- relative viability ([12]; first compound 0.0002 µM): 1.13
- relative viability ([12]; first compound 0.000632 µM): 1.01
- relative viability ([12]; first compound 0.002 µM): 0.956
- relative viability ([12]; first compound 0.006325 µM): 0.192
- relative viability ([12]; first compound 0.02 µM): 0.137
- relative viability ([13]; first compound 0.0002 µM): 0.241
- relative viability ([13]; first compound 0.000632 µM): 0.257
- relative viability ([13]; first compound 0.002 µM): 0.26
- relative viability ([13]; first compound 0.006325 µM): 0.207
- relative viability ([13]; first compound 0.02 µM): 0.178
- relative viability ([14]; first compound 0.0002 µM): 0.769
- relative viability ([14]; first compound 0.000632 µM): 0.319
- relative viability ([14]; first compound 0.002 µM): 0.172
- relative viability ([14]; first compound 0.006325 µM): 0.117
- relative viability ([14]; first compound 0.02 µM): 0.1
- relative viability ([15]; first compound 0.0002 µM): 0.868
- relative viability ([15]; first compound 0.000632 µM): 0.7
- relative viability ([15]; first compound 0.002 µM): 0.509
- relative viability ([15]; first compound 0.006325 µM): 0.196
- relative viability ([15]; first compound 0.02 µM): 0.166
- relative viability ([16]; first compound 0.0002 µM): 0.983
- relative viability ([16]; first compound 0.000632 µM): 1.03
- relative viability ([16]; first compound 0.002 µM): 0.908
- relative viability ([16]; first compound 0.006325 µM): 0.646
- relative viability ([16]; first compound 0.02 µM): 0.5
- relative viability ([17]; first compound 0.0002 µM): 0.859
- relative viability ([17]; first compound 0.000632 µM): 0.809
- relative viability ([17]; first compound 0.002 µM): 0.42
- relative viability ([17]; first compound 0.006325 µM): 0.222
- relative viability ([18]; first compound 0.0002 µM): 0.358
- relative viability ([18]; first compound 0.000632 µM): 0.292
- relative viability ([18]; first compound 0.002 µM): 0.22
- relative viability ([18]; first compound 0.006325 µM): 0.278
- relative viability ([18]; first compound 0.02 µM): 0.159
- relative viability ([19]; first compound 0.0002 µM): 0.717
- relative viability ([19]; first compound 0.000632 µM): 0.341
- relative viability ([19]; first compound 0.002 µM): 0.146
- relative viability ([19]; first compound 0.02 µM): 0.096
- relative viability ([20]; first compound 0.0002 µM): 0.862
- relative viability ([20]; first compound 0.000632 µM): 0.815
- relative viability ([20]; first compound 0.002 µM): 0.344
- relative viability ([20]; first compound 0.006325 µM): 0.298
- relative viability ([20]; first compound 0.02 µM): 0.24
